According to patent US20250144069A1, “BILOBALIDE DERIVATIVE COMPOUNDS FOR TREATING NEUROLOGICAL DISEASES AND CANCERS” (The Chinese University of Hong Kong, priority 2023, published 2025):
Where two headings read alike, the source gives them in different places.

Assays:
Type in all cases: cell-based, human
Jurkat cells = assay: Single-dose CCK-8 cell viability screening (suspension cells); details: Homo sapiens, 48 h
Method: (§1) In this example, the anti-cancer properties of the BB analogues described in Table 1d were evaluated. Single-dose screening approach is used for initial testing to assess the cytotoxic effect of the BB analogues (also referred to as ‘BB compounds’) on Jurkat cells (human T cell leukaemia cells) and A549 cells (human lung cancer cells).
Method for Suspension Cells (Jurkat Cells)
5000 cells/90 uL were seeded in 96-well plates. 10 uL of 500 uM compound (10×) was added to each well in 6 replicates. The following controls were prepared.
Blank control: 10 uL 1% DMSO in media with no cells per well.
Positive control: 10 uL of 100 uM 5-flurouracil (10×) per well.
Negative control: 10 uL of 1% DMSO in media (10×) per well.
Each 96-well plate included 7 BB analogues and the complete set of controls (in 6 replicates).
(§2) Cells were incubated at 37° C.+5% CO2 for 46 hours. 10 uL of CCK8 solution was added to each well. Cells were then incubated at 37° C.+5% CO2 for 2 hours. Absorbance at 450 nm was measured using a multiplate reader.
(§3) Viability was calculated using the equation: […]
(§4) The benchmark in Table 2 was used to define the activities of each compound.

[1] = Single-dose CCK-8 cell viability screening (adherent cells); details: Homo sapiens, average of A549 and Jurkat % viability, 50 uM, 48 h
Method: as §1
(§5) Method for Adherent Cells (A549 Cells)
(§6) In this example, 5000 cells/100 uL were seeded in 96-well plates and incubate at 37° C.+5% CO2 overnight. Media were replaced with 100 uL of 50 uM compound per well in 6 replicates. The following controls were prepared.
(§7) Blank control: 100 uL 0.1% DMSO in media with no cells per well.
(§8) Positive control: 100 uL of 10 uM 5-flurouracil per well.
(§9) Negative control: 100 uL of 0.1% DMSO in media per well.
(§10) Each 96-well plate included 7 compounds and the complete set of controls (in 6 replicates).
as §2, §3, §4

A549 cells = assay: as above; details: Homo sapiens, read-out: % Viability (50 uM, 48 h) A549
Method: as §1, §5, §6, §7, §8, §9, §10, §2, §3, §4

[2] = Jurkat, Jurkat cells, 50 uM, CCK-8, read-out: % Viability (50 uM, 48 h) Jurkat
[3] = A549, 48 h, A549 cells, 50 uM, 48 h, CCK-8
[4] = Jurkat, read-out: % Viability (50 uM, 48 h) Jurkat

Row | Compound | viability at 50 µM (Jurkat cells; [2]) [%] | viability at 50 µM ([1]; A549, 48 h) [%] | viability at 50 µM (A549 cells; [3]) [%] | viability at 50 µM (Jurkat cells; [4]) [%] | viability at 50 µM [1] [%] | viability at 50 µM (A549 cells; A549, 48 h) [%] | viability at 50 µM (Jurkat cells; Jurkat cells, 50 uM, CCK-8, read-out: % Viability (50 uM, 48 h) Jurkat) [%] | viability at 50 µM (A549 cells; A549 cells, 50 uM, 48 h, CCK-8) [%]
1 | CC(C)(C)[C@]1(O)C[C@@H]2OC(=O)C[C@@]23C(=O)O[C@@H]2N(CCC4CCNCC4)C(=O)C(OC(=O)c4ccccc4)[C@]213 (stereo in doubt) [XBB-024, 4-(2-((3aS,5aS,8S,8aS,9R,10aS)-8-(benzoyloxy)-9-(tert-butyl)-9-hydroxy-2,4,7-trioxohexahydro-4H,9H-furo [3″,2″:2′,3′]cyclopenta [1′,2′:3,4]furo[2,3-b]pyrrol-6(5aH)-yl)ethyl)piperidin-1-ium chloride] | 97.8 | 96.2 | 94.7 |  |  |  |  | 
2 | CC(C)(C)[C@]1(O)C[C@@H]2OC(=O)C[C@@]23C(=O)O[C@@H]2N(CCN4CCNCC4)C(=O)C(OC(=O)c4ccccc4)[C@]213 (stereo in doubt) [XBB-028, 4-(2-((3aS,5aS,8S,8aS,9R,10aS)-8-(benzoyloxy)-9-(tert-butyl)-9-hydroxy-2,4,7-trioxohexahydro-4H,9H-furo [3″,2″:2′,3′]cyclopenta [1′,2′:3,4]furo [2,3-b]pyrrol-6(5aH)-yl)ethyl)piperazin-1-ium chloride] | 90.5 | 89.7 | 88.8 |  |  |  |  | 
3 | CN1C(=O)[C@H](OC(=O)c2ccccc2)[C@@]23[C@@H]1OC(=O)[C@@]21CC(=O)O[C@H]1C[C@@]3(O)C(C)(C)C [DW168, (3aS,5aS,8R,8aS,9R,10aS)-9-(tert-butyl)-9-hydroxy-6-methyl-2,4,7-trioxooctahydro-4H,9H-furo [3″,2″:2′,3′]cyclopenta [1′,2′:3,4]furo[2,3-b]pyrrol-8-ylbenzoate] | 101 | 103 | 105 |  |  |  |  | 
4 | CC(C)(C)[C@]1(O)C[C@@H]2OC(=O)C[C@@]23C(=O)O[C@@H]2N(C45CC(C4)C5)C(=O)[C@H](OC(=O)c4ccccc4)[C@]213 [DW172, (3aS,5aS,8R,8aS,9R,10aS)-6-(bicyclo[1.1.1]pentan-1-yl)-9-(tert-butyl)-9-hydroxy-2,4,7-trioxooctahydro-4H,9H-furo [3″,2″:2′,3′]cyclopenta [1′,2′:3,4]furo[2,3-b]pyrrol-8-yl benzoate] |  |  |  | 94.4 | 96.6 | 98.7 |  | 
5 | CC(C)(C)[C@]1(O)C[C@@H]2OC(=O)C[C@@]23C(=O)O[C@@H]2N(C4COC4)C(=O)[C@H](OC(=O)c4ccccc4)[C@]213 [DW182, (3aS,5aS,8R,8aS,9R,10aS)-9-(tert-butyl)-9-hydroxy-6-(oxetan-3-yl)-2,4,7-trioxooctahydro-4H,9H-furo [3″,2″:2′,3′]cyclopenta [1′,2′:3,4]furo [2,3-b]pyrrol-8-yl benzoate] | 101 | 107 | 114 |  |  |  |  | 
6 | CC(C)(C)[C@]1(O)C[C@@H]2OC(=O)C[C@@]23C(=O)O[C@@H]2N(CC4CCC4)C(=O)[C@H](OC(=O)c4ccccc4)[C@]213 [DW184, (3aS,5aS,8R,8aS,9R,10aS)-9-(tert-butyl)-6-(cyclobutylmethyl)-9-hydroxy-2,4,7-trioxooctahydro-4H,9H-furo [3″,2″:2′,3′]cyclopenta [1′,2′:3,4]furo [2,3-b]pyrrol-8-yl benzoate] | 68.7 | 81.1 | 93.5 |  |  |  |  | 
7 | CC(C)(C)[C@]1(O)C[C@@H]2OC(=O)C[C@@]23C(=O)O[C@@H]2N(CC4CC4)C(=O)[C@H](OC(=O)c4ccccc4)[C@]213 [DW189, (3aS,5aS,8R,8aS,9R,10aS)-9-(tert-butyl)-6-(cyclopropylmethyl)-9-hydroxy-2,4,7-trioxooctahydro-4H,9H-furo [3″,2″:2′,3′]cyclopenta [1′,2′:3,4]furo[2,3-b]pyrrol-8-yl benzoate] | 95.3 | 101 | 107 |  |  |  |  | 
8 | CC(C)(C)[C@]1(O)C[C@@H]2OC(=O)C[C@@]23C(=O)O[C@@H]2N(CC4COC4)C(=O)[C@H](OC(=O)c4ccccc4)[C@]213 [DW191, (3aS,5aS,8R,8aS,9R,10aS)-9-(tert-butyl)-6-(1-oxetan-3-ylmethyl)-9-hydroxy-2,4,7-trioxooctahydro-4H,9H-furo [3″,2″:2′,3′]cyclopenta [1′,2′:3,4]furo [2,3-b]pyrrol-8-yl benzoate] | 105 | 103 | 101 |  |  |  |  | 
9 | CC(C)(C)[C@]1(O)C[C@@H]2OC(=O)C[C@@]23C(=O)O[C@@H]2N(N)C(=O)[C@H](O)[C@]213 [JW072, (3aS,5aS,8R,8aS,9R,10aS)-6-amino-9-(tert-butyl)-8,9-dihydroxytetrahydro-4H,9H-furo [3″,2″:2′,3′]cyclopenta [1′,2′:3,4]furo [2,3-b]pyrrole-2,4,7(3H,8H)-trione] |  |  |  |  | 100 |  | 97.2 | 103
10 | CC(C)(C)[C@]1(O)C[C@@H]2OC(=O)C[C@@]23C(=O)O[C@@H]2N(C4CCCC4)C(=O)[C@H](OC(=O)c4ccccc4)[C@]213 [JW081, (3aS,5aS,8R,8aS,9R,10aS)-9-(tert-butyl)-6-cyclopentyl-9-hydroxy-2,4,7-trioxooctahydro-4H,9H-furo[3″,2″:2′,3′]cyclopenta [1′,2′:3,4]furo[2,3-b]pyrrol-8-yl benzoate] |  |  |  | 87.1 | 88.3 | 89.5 |  | 
11 | COc1cccc(N2C(=O)[C@H](OC(=O)c3ccccc3)[C@@]34[C@@H]2OC(=O)[C@@]32CC(=O)O[C@H]2C[C@@]4(O)C(C)(C)C)c1 [JW092, (3aS,5aS,8R,9R,10aS)-9-(tert-butyl)-9-hydroxy-6-(3-methoxyphenyl)-2,4,7-trioxodecahydrofuro [3″,2″:2′,3′]cyclopenta [1′,2′:3,4]furo [2,3-b]pyrrol-8-yl benzoate] | 69.3 | 61.5 | 53.7 |  |  |  |  | 
12 | COc1ccc(N2C(=O)[C@H](OC(=O)c3ccccc3)[C@@]34[C@@H]2OC(=O)[C@@]32CC(=O)O[C@H]2C[C@@]4(O)C(C)(C)C)cc1 [JW093, (3aS,5aS,8R,9R,10aS)-9-(tert-butyl)-9-hydroxy-6-(4-methoxyphenyl)-2,4,7-trioxodecahydrofuro [3″,2″:2′,3′]cyclopenta [1′,2′:3,4]furo [2,3-b]pyrrol-8-yl benzoate] | 66.3 | 67.5 | 68.7 |  |  |  |  | 
13 | CC(C)(C)[C@]1(O)C[C@@H]2OC(=O)C[C@@]23C(=O)O[C@@H]2N(c4ccc5ccccc5c4)C(=O)[C@H](OC(=O)c4ccccc4)[C@]213 [JW094, (3aS,5aS,8R,9R,10aS)-9-(tert-butyl)-9-hydroxy-6-(naphthalen-2-yl)-2,4,7-trioxodecahydrofuro [3″,2″:2′,3′]cyclopenta [1′,2′:3,4]furo [2,3-b]pyrrol-8-yl benzoate] | 76.9 | 76.7 | 76.5 |  |  |  |  | 
14 | COc1ccccc1N1C(=O)[C@H](OC(=O)c2ccccc2)[C@@]23[C@@H]1OC(=O)[C@@]21CC(=O)O[C@H]1C[C@@]3(O)C(C)(C)C [JW095, (3aS,5aS,8R,9R,10aS)-9-(tert-butyl)-9-hydroxy-6-(2-methoxyphenyl)-2,4,7-trioxodecahydrofuro [3″,2″:2′,3′]cyclopenta [1′,2′:3,4]furo [2,3-b]pyrrol-8-yl benzoate] | 69 | 78.1 | 87.2 |  |  |  |  | 
